This test concerns the target T1, HIV-1 protease (Human immunodeficiency virus type 1 group M subtype B, UniProt P04585).
T1 construct: The protease (or proteinase), consisting of only 99 amino acids, is among the smallest enzymes known
The test is described as follows: In vitro HIV protease inhibitory assay (HIV Protease FITC Assay). Type of test: biochemical. Conditions: for inhibition at 1 µM / inhibition at 10 µM / inhibition at 100 µM: read-out: HIV-1 Protease % Inhib. The method, then: The HIV protease screening assay is based on a fluorescently labeled substrate which can be resolved from nonlabeled cleavage product using avidin-polystyrene particles, 0.7-0.9 µm. The substrate is biotinylated at the amino terminal arginine and fluorescently labeled with fluorescein isothiocynate (FITC) at the carboxyl terminal lysine. […] Substrate (20 µl of 0.2 µM), sample (10 µl of desired concentraion), and enzyme (10 µl of 0.1 µM) are added to a 96 well pandex plate. The assay is run in 0.1 M sodium acetate buffer at pH 5.5 in the presence of 1.0 M sodium chloride and 0.05% NP-40 and incubated in the dark for one hour at room temperature. Avidin coated polystyrene beads {40 µl of 0.1% (w/v)} are added and the incubation is continued in the dark for an additional half hour. The labeled cleavage product is separated from the unreacted substrate via filtration and is read on the Idexx Screen Machine. The data are analyzed by appropriate computer algorithms to ascertain percent inhibition values.

By IC50 is commonly meant the concentration needed to halve the response being measured. Low values mean higher potency, high ones lower potency.

In the case of “3-(.alpha.-ethylbenzyl)-4-hydroxy-6-(3-butenyl)-2H-Pyran-2-one [Example 10]”, it took 2.9 µM to reach half-maximal inhibition (IC50). Moreover, the “HIV-1 Protease % Inhib” value (HIV-1 Dose 1.000 uM) was found to be 14.18%. In addition, the “HIV-1 Protease % Inhib” value (HIV-1 Dose 10.000 uM) is recorded as 82.75%. Further, the “HIV-1 Protease % Inhib” value (HIV-1 Dose 100.000 uM) was 104.37%.

Regarding “3-(.alpha.-ethylbenzyl)-4-hydroxy-6-propyl-2H-Pyran-2-one [Example 9]”, the IC50 came to 19.2 µM. Also, the “HIV-1 Protease % Inhib” value (HIV-1 Dose 1.000 uM) worked out at 16.27%. In addition, the “HIV-1 Protease % Inhib” value (HIV-1 Dose 10.000 uM) was determined as 73.49%. In addition, the “HIV-1 Protease % Inhib” value (HIV-1 Dose 100.000 uM) is listed as 98.35%.

Turning to “3-(α-Cyclopropyl-meta-(tert-butyloxycarbonylamino)benzyl)-6-(α-cyclopropylmethyl-cyclopropylethyl)-4-hydroxy-2H-pyran-2-one [Example 38]”, the “HIV-1 Protease % Inhib” value runs as follows: (HIV-1 Dose 0.123 uM) less than 10%; (HIV-1 Dose 0.370 uM) less than 10%; (HIV-1 Dose 1.100 uM) less than 10%; (HIV-1 Dose 3.300 uM) 26.72%; (HIV-1 Dose 10.000 uM) 58.44%; (HIV-1 Dose 30.000 uM) 69.94%.

With `CCC(c1ccccc1)c1c(O)cc(-c2ccccc2)oc1=O` (stereo not drawn) [Example 1, 3-(α-ethylbenzyl)-4-hydroxy-6-phenyl-2H-Pyran-2-one], the inhibition at 1 µM (HIV-1 Dose 1.000 uM) is less than 10%. The inhibition at 10 µM (HIV-1 Dose 10.000 uM) amounted to 45.5%. For the same compound, the inhibition at 100 µM (HIV-1 Dose 100.000 uM) stood at 80%.

With `CCC(c1ccccc1)c1c(O)cc(Cc2ccccc2)oc1=O` (stereo not drawn) [Example 2, 6-benzyl-3-(α-ethylbenzyl)-4-hydroxy-2H-Pyran-2-one], the inhibition at 1 µM (HIV-1 Dose 1.000 uM) is less than 10%. For the same compound, the inhibition at 10 µM (HIV-1 Dose 10.000 uM) is 38.7%. Besides, the inhibition at 100 µM (HIV-1 Dose 100.000 uM) came out at 74.3%.

Turning to `CCCC(c1ccc(Br)cc1)c1c(O)cc(CCc2ccccc2)oc1=O` (stereo not drawn) [Example 4, 4-hydroxy-6-phenethyl-3-(α-propyl-p-bromobenzyl)-2H-Pyran-2-one], under “HIV-1 Dose 1.000 uM”, the inhibition at 1 µM is less than 10%. In addition, for the setting “HIV-1 Dose 10.000 uM”, the inhibition at 10 µM amounted to 15.8%. Also, where the note is “HIV-1 Dose 100.000 uM”, the inhibition at 100 µM came out at 51.2%.

For the compound `CCC(c1ccccc1)c1c(O)cc(CCc2ccc(Br)cc2)oc1=O` (stereo not drawn) [Example 6, 6-(p-bromophenethyl)-3-(α-ethylbenzyl)-4-hydroxy-2H-Pyran-2-one], the inhibition at 1 µM (HIV-1 Dose 1.000 uM) was determined as 15.6%. For the same compound, the inhibition at 10 µM (HIV-1 Dose 10.000 uM) was determined as 39.6%. Also, the inhibition at 100 µM (HIV-1 Dose 100.000 uM) was determined as 69.7%.

Turning to `CCC(c1ccccc1)c1c(O)cc(CCc2ccccc2F)oc1=O` (stereo not drawn) [Example 7, 3-(α-ethylbenzyl)-6-(o-fluorophenethyl)-4-hydroxy-2H-Pyran-2-one], 6.4 µM corresponded to half-maximal inhibition (IC50). Also, the inhibition at 1 µM (HIV-1 Dose 1.000 uM) was 14%. Also, the inhibition at 10 µM (HIV-1 Dose 10.000 uM) came out at 74.1%. Where the note is “HIV-1 Dose 100.000 uM”, the “HIV-1 Protease % Inhib” value is 109% and the inhibition at 100 µM turned out to be 109%.

With `CCC(c1ccccc1)c1c(O)cc(CCCc2ccccc2)oc1=O` (stereo not drawn) [Example 8, 3-(α-ethylbenzyl)-4-hydroxy-6-(3-phenylpropyl)-2H-Pyran-2-one], the IC50 amounted to 3.9 µM. Besides, the inhibition at 1 µM (HIV-1 Dose 1.000 uM) was determined as 15.8%. For the same compound, the inhibition at 10 µM (HIV-1 Dose 10.000 uM) is 79%. In addition, for the setting “HIV-1 Dose 100.000 uM”, the “HIV-1 Protease % Inhib” value is reported as 97% and the inhibition at 100 µM came out at 96.6%.

As for `CCC(c1ccccc1)c1c(O)cc(CC(=O)Nc2ccccc2)oc1=O` (stereo not drawn) [Example 11, 3-(α-ethylbenzyl)-4-hydroxy-6-[[(phenylamino)carbonyl]methyl]-2H-Pyran-2-one], for the setting “HIV-1 Dose 1.000 uM”, the inhibition at 1 µM was 10.8%. Moreover, under “HIV-1 Dose 10.000 uM”, the inhibition at 10 µM was 35.6%. Under “HIV-1 Dose 100.000 uM”, the inhibition at 100 µM worked out at 79.8%.

`C=CC(c1ccccc1)c1c(O)cc(CCc2ccccc2)oc1=O` (stereo not drawn) [Example 12, 4-hydroxy-6-phenethyl-3-(α-vinylbenzyl)-2H-Pyran-2-one] yielded an IC50 of 5.4 µM. Also, the inhibition at 1 µM (HIV-1 Dose 1.000 uM) is 17.5%. For the same compound, the inhibition at 10 µM (HIV-1 Dose 10.000 uM) turned out to be 67.4%. Where the note is “HIV-1 Dose 100.000 uM”, the “HIV-1 Protease % Inhib” value was determined as 107% and the inhibition at 100 µM was 107%.

Consider `CCC(CC)c1cc(O)c(C(CC)c2ccccc2)c(=O)o1` (stereo not drawn) [Example 14, 6-(1'-Ethyl-propyl)-4-hydroxy-3-(1'-phenyl-propyl)-2-pyrone], for which the IC50 amounted to 2.2 µM. Also, the inhibition at 1 µM (HIV-1 Dose 1.000 uM) worked out at 40.2%. For the same compound, the inhibition at 10 µM (HIV-1 Dose 10.000 uM) is 90.2%. The inhibition at 100 µM (HIV-1 Dose 100.000 uM) was 105%.

For the origin of these results see patent EP1203770A1 (priority 1992, dated 1994).
